In patent publication US11052099B2, “Use of cimicifugae rhizoma triterpenoid saponin extract, actein, and deoxyactein” (BEIJING DITAN HOSPITAL, CAPITAL MEDICAL UNIVERSITY, priority 2017, dated 2021):

Tests used:
[1] = test system: ConA hepatitis mouse model; assay: Survival rate of ConA hepatitis mouse model; assay type: in vivo, C57BL/6 mice; conditions: ConA 25 mg/kg i.v.; 96-hour observation; gavage, extract 15 mg/kg, actein and deoxyactein 5 mg/kg; model group 10%
Experimental: Test materials: ConA was purchased from Sigma; actein and deoxyactein were purchased from ChromaDex, USA.
(§1) Animal: C57BL/6 mice, purchased from Beijing Huafukang Biotechnology Co., Ltd.
Grouping: 40 C57BL/6 mice, male, 18-20 g, after 1 day of adaptive breeding, mice were randomly divided into 4 groups of 10 animals in each group: ConA model group, triterpenoid saponin group, actein group, and deoxyactein group.
Model preparation and drug administration: weighed 150 mg of ConA powder, dissolved it in 40 mL of sterile PBS, left it at room temperature for 1 to 2 hours, and continued to gently shake intermittently to mix well. Low temperature ultrasound was used to improve dissolution (no more than 5 min each time) and avoided excessive foaming. After it was fully dissolved, the volume was adjusted to 50 mL to a concentration of 3 mg/mL and filtered the solution under pressure with a 0.45 μm filter. Mice were given a single intravenous injection at 25 mg/kg, with 100 μL per mouse. Took 4 mg of actein and deoxyactein, added 10 ml of sterile double-distilled water to dissolve to a concentration of 0.4 mg/mL. […]

[2] = test system: ConA hepatitis mouse model; assay: Serum ALT and AST in ConA hepatitis mouse model; assay type: in vivo, C57BL/6 mice; conditions: serum 10 hours after ConA 15 mg/kg i.v.; gavage, extract 15 mg/kg, actein/deoxyactein 5 mg/kg; MEAN ± SEM
Experimental: The test materials and animals were the same as those in Experimental Example 1.
(§2) Grouping: C57BL/6 mice, male, 18-20 g, after 1 day of adaptive breeding, randomly divided into 5 groups: normal control group, ConA model group, triterpenoid saponin group, actein group and deoxyactein group.
(§3) Model preparation and drug administration: except the normal control group, mice were injected intravenously at a dose of ConA 15 mg/kg. The dosage of each group was the same as that of Experimental Example 1.
(1) The effects of drug administration in each group on serum ALT and AST of ConA mice were measured. Eight mice in each group were sacrificed under anesthesia 10 hours after ConA injection. Peripheral blood was taken, and serum was separated to detect ALT and AST.

[3] = test system: ConA hepatitis mouse model; assay: Liver pathological damage in ConA hepatitis mouse model (HE staining); assay type: in vivo, C57BL/6 mice; conditions: liver 10 hours after ConA 15 mg/kg; compared with the ConA group
Experimental: as §2, §3
(2) The effects of drug administration in each group on liver pathological damage in ConA mice were examined. Three mice in each group were sacrificed under anesthesia 10 hours after ConA injection. The left lobe of the liver was taken, cut into a size of about 5 mm3, and placed in 10% formalin solution, and dehydrated, transparently impregnated with wax, embedded, sliced, and spread, observed after staining;

[4] = test system: serum cytokines TNF-α, IL-12, IL-6, MCP-1, IFN-γ; assay: Serum inflammatory cytokine secretion in ConA mouse model; assay type: in vivo, C57BL/6 mice; conditions: MEAN ± SEM; for IL-6 / IL-12 / MCP-1 / TNF-α: serum 3 hours after ConA injection; for IFN-γ: serum 10 hours after ConA injection
Experimental: as §2, §3
(3) The effect of each group of drugs on serum cytokine secretion of ConA mice was examined. Six mice in each group. Peripheral blood was collected 3 hours after ConA injection and serum was separated to detect the secretion of cytokines TNF-α, IL-12, IL-6 and MCP-1. Serum was separated 10 hours after ConA injection to detect cell factor IFN-γ secretion.

[5] = test system: mouse bone marrow-derived macrophages (BMDM); assay: IL-12 and TNF-α secretion by LPS-stimulated macrophages (BMDM); assay type: cell-based, C57BL/6 mice; conditions: ELISA
Source text: Test materials: LPS was purchased from Sigma; actein and deoxyactein were purchased from American ChromaDex; FBS was purchased from American PAA; DMEM high glucose medium; macrophage colony-stimulating factor (M-CSF) was purchased from PeproTech company; ELISA kit was purchased from BD company of the United States.
as §1
Isolation and culture of mouse bone marrow-derived macrophages (BMDM): after anesthesia of C57BL/6 mice, the mouses 2 pairs of femur and tibia were aseptically separated, and the bone marrow cells were flushed into a sterile flow tube using a 2 mL syringe with sterile PBS. Repeatedly pipetted into a bone marrow single cell suspension. After centrifugation, bone marrow cells were harvested, and 10 mL of complete medium containing 10% FBS, 1% glutamine, 1% double antibiotics (anti-penicillin, anti-streptomycin), and 10 ng/mL M-CSF were added to […] cell culture dish to culture at 37° C. After 4 days, the above fresh medium was changed, and macrophages with large volume, adherent growth, and mature differentiation were observed under the microscope on the 7th day. The cells were scraped off with a cell scraper, and repeatedly blown and mixed to form a single cell suspension, and then seeded in a 96-well plate at 1×10^5 cells/well.
BMDM cells induced activation and drug treatment: BMDM cells were treated with different doses of actein and deoxyactein, and 100 ng/mL LPS was given to stimulate cells 1 h later to simulate the activation of macrophages by bacterial infection. The cell supernatant was collected 4 hours later, and cytokine secretion was detected by ELISA.

CD45+CD3-NK1.1+ NK cells = assay: IFN-γ expression in NK cells; assay type: cell-based, C57BL/6 mice; conditions: bone marrow cells; actein 62.5 ng/mL, deoxyactein 250 ng/mL; PMA + ionomycin 5 h; flow cytometry; PMA + ionomycin group 42.1 ± 2.7
Experimental: Test materials: CD45-PE, CD3-FITC, NK1.1-APC antibody, Intracellular Fixation & Permeabilization Buffer Set, and Cell Stimulation Cocktail were purchased from eBioscience.
as §1
Bone marrow single cell suspension preparation: after anesthesia of C57BL/6 mice, the 2 pairs of femur and tibia of the mouse were separated aseptically, the sterile bone marrow cells were pipetted into a sterile flow tube with a 2 mL syringe and sterile PBS to obtain bone marrow single cell suspension. After centrifugation, bone marrow cells were harvested, and 1.5 mL of complete medium containing 10% FBS, 1% glutamine, and 1% double antibiotics (anti-penicillin, anti-streptomycin) were added.
Intracellular staining after drug administration and NK cell induction activation: cells were treated with actein of intermediate concentration of 62.5 ng/mL and deoxyactein at a concentration of 250 ng/mL, and the cells were stimulated with Cell Stimulation Cocktail (containing PMA, ionomycin and protein transport inhibitors) for 5 h. Surface staining was performed with CD45-PE, CD3-FITC, NK1.1-APC antibodies, intracellular staining was performed with […] antibodies, and the percentage of positive cells expressing IFN-γ in CD45^+CD3^−NK1.1^+ NK cells was detected by flow cytometry.

[6] = test system: CD45+CD3+NK1.1+ NKT cells; assay: IFN-γ expression in NKT cells; assay type: cell-based, C57BL/6 mice; conditions: bone marrow cells; actein 62.5 ng/mL, deoxyactein 250 ng/mL; PMA + ionomycin 5 h; flow cytometry; PMA + ionomycin group 7.1 ± 0.7
Source text: Test material: same as Experimental Example 9.
Animal: C57BL/6 mice, purchased from Beijing Huafukang Biotechnology Co., Ltd
Bone marrow single cell suspension preparation: same as Experimental Example 9.
Drug treatment and intracellular staining after NKT cell induction activation: same as Experimental Example 9. Flow cytometry was used to detect the percentage of positive cells expressing IFN-γ in CD45^+CD3^+NK1.1^+ NKT cells.

CD3+CD4+ T cells = assay: IFN-γ expression in CD4+ T lymphocytes; assay type: cell-based, C57BL/6 mice; conditions: spleen cells; actein 62.5 ng/mL, deoxyactein 250 ng/mL; PMA + ionomycin 5 h; PMA + ionomycin group 3.8 ± 0.6
Experimental: (§4) Test materials: CD3-PE antibodies were purchased from BD Company in the United States, and CD4-FITC and CD8-PerCP antibodies were purchased from eBioscience Company; the remaining required reagents were the same as those in Experimental Example 9.
as §1
(§5) Preparation of spleen single cell suspension: after anesthesia of C57BL/6 mice, isolated the spleen of the mouse, placed the spleen in a sterile petri dish with 4 mL of PBEB added, grinded the spleen with a glass frosted surface, and filtered with a sterile 400 mesh filter. The spleen cells were placed in a flow tube, and the supernatant was discarded after centrifugation. After adding 2 mL of RBC Lysis Buffer to lyse at room temperature for 15 minutes, the supernatant was discarded by centrifugation to harvest the spleen cells. Then added 1.5 mL of complete medium containing 10% FBS, 1% glutamine, and 1% double antibiotics (anti-penicillin, anti-streptomycin), and mixed well by repeated pipetting.
(§6) Drug treatment and intracellular staining after T cell induction activation: cells were treated with 62.5 ng/mL actein and 250 ng/mL deoxyactein in a medium concentration, and Cell Stimulation Cocktail (containing PMA, ionomycin and protein transport inhibitor) was added to stimulate the cells for 5 h. […]

CD3+CD8+ T cells = assay: IFN-γ expression in CD8+ T lymphocytes; assay type: cell-based, C57BL/6 mice; conditions: spleen cells; actein 62.5 ng/mL, deoxyactein 250 ng/mL; PMA + ionomycin 5 h; PMA + ionomycin group 14.5 ± 1.0
Experimental: as §4, §1, §5, §6

[7] = 2.5 ng/mL, LPS 100 ng/mL, 4 hours
[8] = 12.5 ng/mL, LPS 100 ng/mL, 4 hours
[9] = 62.5 ng/mL, LPS 100 ng/mL, 4 hours
[10] = 312.5 ng/mL, LPS 100 ng/mL, 4 hours
[11] = 25 ng/mL, LPS 100 ng/mL, 4 hours
[12] = 50 ng/mL, LPS 100 ng/mL, 4 hours
[13] = 125 ng/mL, LPS 100 ng/mL, 4 hours
[14] = 250 ng/mL, LPS 100 ng/mL, 4 hours
[15] = 500 ng/mL, LPS 100 ng/mL, 4 hours

| SMILES | survival rate [1] [%] | ALT [2] [U/L] | AST [2] [U/L] | liver pathological damage (HE staining, FIG. 2) [3] | IL-6 [4] [pg/mL] | IL-12 [4] [pg/mL] | MCP-1 [4] [pg/mL] | TNF-α [4] [pg/mL] | IFN-γ [4] [pg/mL] | IFN-γ+ (CD45+CD3-NK1.1+ NK cells) [%] | IFN-γ+ [6] [%] | IFN-γ+ (%), CD4+T cell (CD3+CD4+ T cells) [%] | IFN-γ+ (%), CD8+T cell (CD3+CD8+ T cells) [%] | further results |
| --- | --- | --- | --- | --- | --- | --- | --- | --- | --- | --- | --- | --- | --- | --- |
| CC(=O)O[C@@H]1C[C@@]23C[C@@]24CC[C@H](O[C@@H]2OC[C@@H](O)[C@H](O)[C@H]2O)C(C)(C)[C@@H]4CC[C@H]3[C@]2(C)C[C@@H]3O[C@]4(C[C@@H](C)[C@@H]3[C@@]12C)O[C@H](O)[C@@]1(C)O[C@@H]41 [Actein, actein] | 60 | 39.8 ± 11.1 | 212 ± 33 | large pieces of hepatocyte necrosis was significantly reduced and leukocyte infiltration was reduced | 792 ± 48 | 22 ± 1.9 | 1832 ± 209.7 | 173 ± 18.2 | 116.2 ± 34.8 | 33.0 ± 2.2 | 3.5 ± 0.6 | 3.1 ± 0.6 | 14.3 ± 0.7 | IL-12 ([5]; 0.5 ng/mL, LPS 100 ng/mL 1 h later, supernatant after 4 hours, LPS group 226.6 ± 26.6): 194.5 ± 22.3 pg/mL; TNF-α ([5]; 0.5 ng/mL, LPS 100 ng/mL 1 h later, supernatant after 4 hours, LPS group 2891 ± 57): 2555 ± 62.3 pg/mL; IL-12 [5, 7]: 136.3 ± 22.8 pg/mL; TNF-α [5, 7]: 2483 ± 77.3 pg/mL; IL-12 [5, 8]: 88.5 ± 10.6 pg/mL; TNF-α [5, 8]: 2327 ± 77.3 pg/mL; IL-12 [5, 9]: 48.2 ± 21.4 pg/mL; TNF-α [5, 9]: 2056 ± 49.2 pg/mL; IL-12 [5, 10]: 8 ± 0.8 pg/mL; TNF-α [5, 10]: 2062 ± 49 pg/mL |
| CC(=O)O[C@@H]1C[C@@]23C[C@@]24CC[C@H](O[C@@H]2OC[C@@H](O)[C@H](O)[C@H]2O)C(C)(C)[C@@H]4CC[C@H]3[C@]2(C)C[C@@H]3O[C@]4(C[C@@H](C)[C@@H]3[C@@]12C)OC[C@@]1(C)O[C@@H]41 [Deoxyactein, deoxyactein] | 40 | 144.4 ± 68.5 | 390.8 ± 98.2 | large pieces of hepatocyte necrosis was significantly reduced and leukocyte infiltration was reduced | 1406 ± 134.1 | 190.5 ± 22.5 | 4741 ± 665.7 | 394.4 ± 41.8 | 245.3 ± 56 | 29.5 ± 3.5 | 2.2 ± 0.4 | 2.0 ± 0.7 | 12.1 ± 1.3 | IL-12 [5, 11]: 244 ± 2.8 pg/mL; TNF-α [5, 11]: 2529 ± 121.3 pg/mL; IL-12 [5, 12]: 177.8 ± 12.5 pg/mL; TNF-α [5, 12]: 2321 ± 97.4 pg/mL; IL-12 [5, 13]: 142.3 ± 6.8 pg/mL; TNF-α [5, 13]: 2440 ± 84.8 pg/mL; IL-12 [5, 14]: 88.1 ± 22.3 pg/mL; TNF-α [5, 14]: 2305 ± 76.8 pg/mL; IL-12 [5, 15]: 42.2 ± 23.7 pg/mL; TNF-α [5, 15]: 2077 ± 43.8 pg/mL |
